Columns and labels:
[1] = tested on: Protein kinase A (PKA); test: PKA activity assay in cardiomyocytes (ELISA-based kit); format: cell-based, mouse; details: isolated cardiomyocytes, pretreatment before AC01/HM01 1 μM
Procedure: (§1) AC01/HM01 was suspended in phosphate buffer saline solution (PBS: in mM: NaCl 137, KCl 7, Na2HPO4 10, KH2PO4 […]) and diluted to obtain 3 different concentrations: 0.2, 0.5 or 1 μM in Tyrode solution. We used a concentration range within 0.2-1 μM to ensure that the receptor was activated. […] Prior to contractility and Ca^2+ signaling measurements and biochemical assays, cardiomyocyte suspensions from SHAM and HF hearts were randomized to 3 types of treatments: vehicle, AC01/HM01, or D-Lys3-GHPR-6+AC01/HM01. The treatment with different agents occurred for 15 minutes at room temperature. Some cell suspension aliquots were flash frozen in liquid N2 and stored at −80° C. for later biochemistry analyses. All the experiments were conducted blinded regarding the treatment of cardiomyocytes.
Elisa-based PKA kinase activity assay kit (ab139435, Abcam, Cambridge, UK) was employed to determine PKA activity in cardiomyocytes. Aliquots of frozen cardiomyocytes were thawed and mixed with a lysis buffer containing (mM) the following: 20 MOPS, 50 β-glycerolphosphate, 5 EGTA, 2 EDTA, 1 benzamidine, 1 sodium orthovanadate, 1% NP40, 1 DTT, complete protease inhibitor cocktail (Roche Diagnostics, West Sussex, UK) and phosphatase inhibitor cocktail 3 (Sigma, Gillingham, UK). Approximately 2 μg of protein of each sample were assayed according to the manufacturer's instructions 27.

[2] = tested on: cardiomyocytes isolated from hearts of SHAM mice; test: Cardiomyocyte contractility (fractional shortening, % FS), SHAM cardiomyocytes; format: cell-based, mouse; details: antagonist 3 μM before AC01/HM01 1 μM
Procedure: (§2) Cardiomyocytes were isolated freshly from cardiac ventricles separately from SHAM and HF mice following the protocol developed by the Alliance for Cellular Signalling (AfCS Procedure Protocol ID PP00000125). From each of the 5 SHAM and 3 HF hearts a cell suspension was made and divided into 10 aliquots each, for a total of 50 aliquots from SHAM and 30 aliquots from HF hearts. These aliquots were treated with vehicle, AC01/HM01 or D-Lys3-GHPR-6+AC01/HM01 as stated and used for the subsequent physiological and biochemical experiments.
as §1
Fresh isolated cardiomyocytes were aliquoted in 1.5 mL tubes and incubated with a cell permeable form of the fluorescent Ca^2+ indicator Fluo-3 AM for approximately 20 minutes followed by washing for >5 min. The cells were plated on laminin coated glass bottom dishes (35 mm, Mattek, Ashland, MA, USA), and then mounted in a custom built perfusion/stimulation chamber. Cells were continuously perfused with O2/CO2 (95/5%) bubbled Tyrode solution with the following composition (in mM): NaCl 121, KCl 5.0, CaCl2 1.8, MgCl2 0.5, NaH2PO4 0.4, NaHCO3 24, EDTA 0.1, glucose 5.5, which represents the vehicle solution.
15 aliquots of cardiomyocyte suspension from SHAM and 9 aliquots from HF were randomized to different treatments: vehicle, AC01/HM01 (0.2, 0.5 or 1 μM) or pretreatment with D-Lys3-GHPR-6 (3 μM) followed by AC01/HM01 (1 μM). The cardiomyocytes were electrically stimulated to contract at 1 Hz with supra-threshold voltage using two platinum electrodes attached to the perfusion/stimulation chamber.
(§3) Line scan fluorescence images were acquired using a confocal microscope (Biorad; 40× oil immersion lenses). […] ImageJ software (open source software developed by NIH, Bethesda, USA) was used to quantify changes in fluorescence (Ca^2+ transients) and contractility of single cardiomyocytes.
(§4) The contractility of cardiomyocytes was measured as the percent of length shortening (fractional shortening; % FS). […]

[3] = molecular target: ghrelin receptor (Homo sapiens, UniProt Q92847); details: ghrelin receptor antagonist; Sigma Aldrich; read-out: IC50 for antagonistic activity; cited from earlier work
[4] = tested on: phospho (Ser 22-23) cardiac troponin I (cTnl); test: Phospho (Ser 22-23) cTnl western blot in cardiomyocytes; format: cell-based, mouse; details: SHAM cardiomyocytes, antagonist 3 μM before AC01/HM01 1 μM
Procedure: as §1
Aliquots of frozen cardiomyocyte suspensions were lysed using NP40 buffer (Thermo Fisher FNN0021, Stockholm, Sweden) supplemented with phosphatase inhibitors (Sigma-Aldrich P2850-1ML, P5726-1ML, Stockholm, Sweden). Protein lysates were separated by electrophoresis and transferred onto membranes. Membranes were incubated with primary antibody: rabbit anti phospho (Ser 22-23) cardiac troponin I (cTnl, Cell Signalling, Leiden, The Netherlands #4004S) and rabbit anti-cTnl (Cell Signalling #4002S, Leiden, The Netherlands). Thereafter, infrared-labelled secondary antibodies (IRDye 680 and IRDye 800, 1:5000, Licor) were used. Immunoreactive bands were analyzed using the Odyssey Infrared Imaging System (Li-Cor, Bad Homburg, Germany). Band densities were quantified with Image J (NIH, Bethesda, USA), normalized to total cTnl and final data was expressed as fold increase compared to bands representing protein extracted from vehicle treated cells.

[5] = tested on: cardiomyocytes isolated from hearts of heart failure (HF) mice; test: Cardiomyocyte contractility (fractional shortening, % FS), heart failure (MI) cardiomyocytes; format: cell-based, mouse; details: antagonist 3 μM before AC01/HM01 1 μM
Procedure: as §2
AC01/HM01 was suspended in phosphate buffer saline solution (PBS: in mM: NaCl 137, KCl 7, Na2HPO4 10, KH2PO4 […]) and diluted to obtain 3 different concentrations: 0.2, 0.5 or 1 μM in Tyrode solution. We used a concentration range within 0.2-1 μM to ensure that the receptor was activated. […]
as §3, §4

ghrelin receptor, sequence (Q92847 whole entry, species assumed): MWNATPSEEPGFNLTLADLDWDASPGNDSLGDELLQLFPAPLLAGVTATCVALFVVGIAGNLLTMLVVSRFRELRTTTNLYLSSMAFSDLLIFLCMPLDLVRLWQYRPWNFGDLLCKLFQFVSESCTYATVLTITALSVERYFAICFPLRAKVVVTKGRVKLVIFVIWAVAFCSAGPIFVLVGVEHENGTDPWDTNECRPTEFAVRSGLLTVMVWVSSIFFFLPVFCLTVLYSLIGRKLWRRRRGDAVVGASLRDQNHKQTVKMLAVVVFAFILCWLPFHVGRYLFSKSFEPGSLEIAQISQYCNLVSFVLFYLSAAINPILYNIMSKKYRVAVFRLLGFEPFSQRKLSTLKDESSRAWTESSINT

D-Lys 3 GHRP-6 [reference compound]
effect of pretreatment on AC01/HM01-induced change of PKA activity ([1]; listed as D-Lys 3): blocked | effect of pretreatment on AC01/HM01-induced change of PKA activity ([1]; listed as D-Lys 3-GHRP-6): restored the PKA activity to physiologic levels | effect of pretreatment on contractile effect of AC01/HM01 [2]: blocked the contractile effect | IC50 [3]: 900 nM | effect of pretreatment on AC01/HM01-induced change of cTnl phosphorylation ([4]; listed as D-Lys3): blocked this effect | effect of pretreatment on AC01/HM01-induced change of cTnl phosphorylation ([4]; listed as D-Lys3—GHRP-6): restored the phosphorylation levels of cTnl to physiologic levels | effect of pretreatment on contractile effect of AC01/HM01 [5]: blocked the contractile effect

— patent US12648941B2, “Piperidine urea derivatives for use as inotropic agents” (Helsinn Healthcare SA, priority 2021, dated 2026)
